Assay results published in US9879303B2, “Chromogenic glucuronidase substrates and uses” (Glycosynth Limited, priority 2013, dated 2018).
Structures can show the parent of a compound that is named as a salt.

Test system: E. coli clinical isolates
Test: screen of strains on agar plates (CPS ID 3 or Columbia agar)
Type: cell-based
Parameters: key to colour: Red, Green, Black or Purple mean strong colour; Red, Green, Black or Purple mean strong colour; Red, Green, Black or Purple mean strong colour; Red, Green, Black or Purple mean strong colour; +/− means less colour than strong; Tr means a trace of colour, less than +/−; — means no colour
Conditions: for colour: 37° C. 18 hours
Text: In order to obtain a fuller picture of the sensitivity of the substrates, they were screened with 100 different clinical isolates of E. coli in a liquid medium containing FAC. The isolates were chosen at random from the Microbiology Department, Freeman Hospital, Newcastle Upon Tyne, UK. The effectiveness of the new substrates was compared with three other media which all contained indoxyl-β-D-glucuronides. One was a commercial medium, CPS ID 3 (bioMérieux SA, Lyon, France). […] This medium was employed as a control. Among the β-D-glucuronidase producing strains of E. coli there is a large variation in the quantity of the enzyme produced and it is almost certain that the CPS ID 3 medium has been rigorously optimised to allow good growth of all the target organisms and maximum expression of the target enzymes. Therefore, two indoxyl glucuronides, X-β-D-glucuronide CHA salt and Rose-β-D-glucuronide CHA salt were also tested in a simple agar medium to allow a direct comparison of the sensitivity of these Indoxyl glucuronides when used in a medium that has not been optimised for the growth of the target organism. The comparison of the results for Rose-β-D-glucuronide and the CPS ID 3 medium was of particular significance as the commercial medium also uses Rose-β-D-glucuronide for the detection of E. coli. For consistency, the four glucuronides were all chosen as their CHA salts. As already stated, it is not anticipated that the salt form is critical to their performance. Currently. X-β-D-glucuronide is often used as either the CHA salt or the sodium salt. Brenner and colleagues [K. P. Brenner et al, Appl. Environ. Microbiol., 59, 3534-3544, (1993)] found no difference in the performance of the CHA and sodium salt forms with their application using indoxyl-β-D-glucuronide, neither in respect of colour development nor in the recovery of E. coli.
The two indoxyl glucuronides used produce insoluble endpoints following hydrolysis, as does the CPS ID 3 medium. It was therefore necessary to test these two substrates on agar plates. In contrast, catechol-β-D-glucuronide (1) and DHN-β-D-glucuronide (2b) give much more soluble endpoints best suited to liquid media and were therefore tested in a broth medium. Each broth was prepared using proteose peptone (Oxoid, Basingstoke, UK) (2 g), NaCl (1 g) and FAC (100 mg) in DI water (180 mL). This mixture was autoclaved and cooled to room temperature before being dispensed into bijoux (100×1.8 mL). Catechol β-D-glucuronide CHA salt (1) or DHN-β-D-glucuronide CHA salt (2b) (60 mg) were each dissolved in water (20 mL) and filtered to sterilize before being aseptically dispensed into successive bijoux (0.2 mL) containing the broth solution. The broth/substrate solutions were then inoculated with bacterial suspensions made up to 0.5 McFarland standard (2 μL per bijoux). X-β-D-glucuronide CHA salt (Glycosynth Ltd, Warrington, UK) (10 mg) was dissolved in NMP (200 μL). Rose-β-D-glucuronide CHA salt (Glycosynth Ltd, Warrington, UK) (20 mg) was dissolved in NMP (200 μL). These solutions were then added to Columbia agar (Oxoid, Basingstoke, UK) (100 mL) and inoculated with bacterial suspensions made up to 0.5 McFarland standard (1 μL). The plates and broths were incubated at 37° C. for 18 hours in air.

[1] = 100 E. coli strains after 18 h incubation

SMILES: O=C(O)[C@H]1O[C@@H](Oc2c[nH]c3ccc(Br)c(Cl)c23)[C@H](O)[C@@H](O)[C@@H]1O [X-β-D-glucuronide CHA salt, 5-bromo-4-chloro-3-indolyl β-D-glucuronide]
- % Sensitivity [1]: 79%
- Negative strains [1]: 21
- Positive strains [1]: 79
- colour (E. coli 260262P): Green
- colour (E. coli 260280Z): Green
- colour (E. coli 260310H): Green
- colour (E. coli 260313A): —
- colour (E. coli 260316T): —
- colour (E. coli 260327V): Green
- colour (E. coli 260330Y): Green
- colour (E. coli 260333P): —
- colour (E. coli 260345F): Green
- colour (E. coli 260348K): Green
- colour (E. coli 260354W): Green
- colour (E. coli 260364H): —
- colour (E. coli 260370C): Green
- colour (E. coli 260375E): Green
- colour (E. coli 260390B): —
- colour (E. coli 260396Z): Green
- colour (E. coli 260398Q): Green
- colour (E. coli 260400N): —
- colour (E. coli 260401Q): Green
- colour (E. coli 260402H): Green
- colour (E. coli 260404W): Green
- colour (E. coli 260405P): Green
- colour (E. coli 260406A): —
- colour (E. coli 260406Y): Green
- colour (E. coli 260407F): Green
- colour (E. coli 260408C): Green
- colour (E. coli 260411Z): Green
- colour (E. coli 260412Q): Green
- colour (E. coli 260414H): Green
- colour (E. coli 260415Y): Green
- colour (E. coli 260416W): —
- colour (E. coli 260417P): Green
- colour (E. coli 260422Y): Green
- colour (E. coli 260424P): Green
- colour (E. coli 260425A): Green
- colour (E. coli 260426F): Green
- colour (E. coli 260428T): Green
- colour (E. coli 260431N): Green
- colour (E. coli 260432E): Green
- colour (E. coli 260433H): Green
- colour (E. coli 260434Y): Green
- colour (E. coli 260435W): Green
- colour (E. coli 260436P): Green
- colour (E. coli 260437A): —
- colour (E. coli 260438F): Green
- colour (E. coli 260439C): Green
- colour (E. coli 260440S): Green
- colour (E. coli 260441G): Green
- colour (E. coli 260458Y): Green
- colour (E. coli 260459W): Green
- colour (E. coli 260463D): Green
- colour (E. coli 260464G): Green
- colour (E. coli 260471B): —
- colour (E. coli 260478N): —
- colour (E. coli 260479Q): Green
- colour (E. coli 260480M): Green
- colour (E. coli 260481J): Green
- colour (E. coli 260483R): —
- colour (E. coli 260485D): Green
- colour (E. coli 260486L): Green
- colour (E. coli 260492J): Green
- colour (E. coli 260494B): Green
- colour (E. coli 260495R): —
- colour (E. coli 260497D): Green
- colour (E. coli 260502G): Green
- colour (E. coli 260503Z): Green
- colour (E. coli 260504N): Green
- colour (E. coli 260505Q): —
- colour (E. coli 260506E): Green
- colour (E. coli 260508Y): Green
- colour (E. coli 260509W): Green
- colour (E. coli 260510R): Green
- colour (E. coli 260511X): Green
- colour (E. coli 260514G): —
- colour (E. coli 260515Z): —
- colour (E. coli 260521S): Green
- colour (E. coli 260522Z): Green
- colour (E. coli 260532S): Green
- colour (E. coli 260533G): Green
- colour (E. coli 260536Q): Green
- colour (E. coli 260537E): —
- colour (E. coli 260538H): —
- colour (E. coli 260539Y): Green
- colour (E. coli 260541R): Green
- colour (E. coli 260545G): Green
- colour (E. coli 260547N): Green
- colour (E. coli 260548Q): Green
- colour (E. coli 260549E): Green
- colour (E. coli 260553X): —
- colour (E. coli 260554D): Green
- colour (E. coli 260555L): Green
- colour (E. coli 260563B): Green
- colour (E. coli 260564R): Green
- colour (E. coli 260578D): —
- colour (E. coli 2603121P): —
- colour (E. coli 2604399E): Green
- colour (E. coli O157 non-toxigenic): —
- colour of positive colonies (in words): green colonies
